Each structure is given as a SMILES string.

The first experiment concerns HBV rcDNA in HepDE19 cells. Description: HepDE19 assay with bDNA quantitation of HBV rcDNA. The following applies: Hepatitis B virus, HepDE19, 168 h, inhibition of rcDNA formation in HepDE19 cells (HepG2 derived), Tet-free medium, 7 day incubation, Quantigene 2.0 bDNA readout, top concentration 25 μM; read-out: DE-19bDNA EC50. It is filed as cell-based, hepatitis B virus (HBV). In outline:
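Cytotoxicity run on replicate plates (5,000 cells/well, 4 days, ATP luminescence, CC50), while antiviral plates (50,000 cells/well) received compound for 7 days after tetracycline withdrawal to induce HBV replication. Top dose 25 μM, 8 points, 0.5% DMSO; rcDNA by branched-DNA assay, % inhibition fitted (4-parameter) for EC50 and EC90.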
Consider `N#Cc1cc(NC(=O)N[C@@H]2COCc3[nH]c(=O)c4cc(F)c(F)cc4c32)ccc1F` (single isomer, unassigned) [Compound 135], for which the EC50 was 0.05 µM.

With `CCN(C(=O)Nc1ccc(F)c(C#N)c1)[C@@H]1COCc2[nH]c(=O)c3cc(F)c(F)cc3c21` (single isomer, unassigned) [Compound 138], the EC50 was determined as 0.01 µM.

Turning to `CC(=O)N1Cc2[nH]c(=O)c3cc(F)ccc3c2C(N(C)C(=O)Nc2ccc(F)c(Cl)c2)C1` (single isomer, unassigned) [Compound 157, 1-(3-Acetyl-8-fluoro-6-oxo-1,2,3,4,5,6-hexahydrobenzo[c][1,7]naphthyridin-1-yl)-3-(3-chloro-4-fluorophenyl)-1-methylurea], the EC50 was determined as 1.2 µM.

The same experiment, now with this note: Hepatitis B virus, HepDE19, 168 h, read-out: DE-19bDNA EC50 (uM), inhibition of rcDNA formation in HepDE19 cells (HepG2 derived), Tet-free medium, 7 day incubation, Quantigene 2.0 bDNA readout, top concentration 25 μM.
With `[2H]C([2H])([2H])N(C(=O)Nc1ccc(F)c(Cl)c1)[C@]1([2H])COCc2[nH]c(=O)c3cc(F)c(F)cc3c21` (single isomer, unassigned) [Compound 146], the EC50 worked out at 0.01 µM.

The same experiment, now with this note: inhibition of rcDNA formation in HepDE19 cells (HepG2 derived), Tet-free medium, 7 day incubation, Quantigene 2.0 bDNA readout, top concentration 25 μM; read-out: DE-19bDNA EC50.
`Cc1cc(NC(=O)N(CC(C)C)C2COCc3[nH]c(=O)c4cc(F)ccc4c32)ccc1F` (single isomer, unassigned) [Compound 131, 3-(4-Fluoro-3-methylphenyl)-1-(8-fluoro-6-oxo-1,4,5,6-tetrahydro-2H-pyrano[3,4-c]isoquinolin-1-yl)-1-isobutylurea]: the EC50 is 0.01 µM.

For `Cc1cc(NC(=O)N(CC(C)C)C2COCc3[nH]c(=O)c4cc(F)ccc4c32)ccc1F` (single isomer, unassigned) [Compound 132, 3-(4-Fluoro-3-methylphenyl)-1-(8-fluoro-6-oxo-1,4,5,6-tetrahydro-2H-pyrano[3,4-c]isoquinolin-1-yl)-1-isobutylurea], the EC50 was determined as 0.15 µM.

For `CN(C(=O)Nc1cc(F)c(F)c(F)c1)C1COCc2[nH]c(=O)c3cc(F)c(F)cc3c21` (single isomer, unassigned) [Compound 133, 1-(8,9-Difluoro-6-oxo-1,4,5,6-tetrahydro-2H-pyrano[3,4-c]isoquinolin-1-yl)-1-methyl-3-(3,4,5-trifluorophenyl)urea], the EC50 was 0.02 µM.

For the compound `CN(C(=O)Nc1cc(F)c(F)c(F)c1)C1COCc2[nH]c(=O)c3cc(F)c(F)cc3c21` (single isomer, unassigned) [Compound 134, 1-(8,9-Difluoro-6-oxo-1,4,5,6-tetrahydro-2H-pyrano[3,4-c]isoquinolin-1-yl)-1-methyl-3-(3,4,5-trifluorophenyl)urea], the EC50 was 0.99 µM.

`NS(=O)(=O)CCN(C(=O)Nc1ccc(F)c(Cl)c1)C1COCc2[nH]c(=O)c3cc(F)c(F)cc3c21` (single isomer, unassigned) [Compound 136, 2-(3-(3-Chloro-4-fluorophenyl)-1-(8,9-difluoro-6-oxo-1,4,5,6-tetrahydro-2H-pyrano[3,4-c]isoquinolin-1-yl)ureido)ethane-1-sulfonamide]: the EC50 was 2.9 µM.

For the compound `NS(=O)(=O)CCN(C(=O)Nc1ccc(F)c(Cl)c1)C1COCc2[nH]c(=O)c3cc(F)c(F)cc3c21` (single isomer, unassigned) [Compound 137, 2-(3-(3-Chloro-4-fluorophenyl)-1-(8,9-difluoro-6-oxo-1,4,5,6-tetrahydro-2H-pyrano[3,4-c]isoquinolin-1-yl)ureido)ethane-1-sulfonamide], the EC50 was 0.01 µM.

As for `CS(=O)(=O)CCN(C(=O)Nc1ccc(F)c(Cl)c1)C1COCc2[nH]c(=O)c3cc(F)c(F)cc3c21` (single isomer, unassigned) [Compound 139, 3-(3-Chloro-4-fluorophenyl)-1-(8,9-difluoro-6-oxo-1,4,5,6-tetrahydro-2H-pyrano[3,4-c]isoquinolin-1-yl)-1-(2-(methylsulfonyl)ethyl)urea], the EC50 was determined as 0.6 µM.

As to `CS(=O)(=O)CCN(C(=O)Nc1ccc(F)c(Cl)c1)C1COCc2[nH]c(=O)c3cc(F)c(F)cc3c21` (single isomer, unassigned) [Compound 140, 3-(3-Chloro-4-fluorophenyl)-1-(8,9-difluoro-6-oxo-1,4,5,6-tetrahydro-2H-pyrano[3,4-c]isoquinolin-1-yl)-1-(2-(methylsulfonyl)ethyl)urea], the EC50 is 0.01 µM.

Take `CN(C(=O)Nc1ccc(F)c(Cl)c1)C1CNCc2[nH]c(=O)c3cc(F)c(F)cc3c21` (single isomer, unassigned) [Compound 149, 3-(3-Chloro-4-fluorophenyl)-1-(8,9-difluoro-6-oxo-1,2,3,4,5,6-hexahydrobenzo[c][1,7]naphthyridin-1-yl)-1-methylurea]: the EC50 was 0.25 µM.

`CN(C(=O)Nc1ccc(F)c(Cl)c1)C1CNCc2[nH]c(=O)c3cc(F)c(F)cc3c21` (single isomer, unassigned) [Compound 150, 3-(3-Chloro-4-fluorophenyl)-1-(8,9-difluoro-6-oxo-1,2,3,4,5,6-hexahydrobenzo[c][1,7]naphthyridin-1-yl)-1-methylurea]: the EC50 stood at 0.01 µM.

Consider `CN(C(=O)Nc1ccc(F)c(Cl)c1)C1CNCc2[nH]c(=O)c3cc(F)ccc3c21` (single isomer, unassigned) [Compound 153, 3-(3-Chloro-4-fluorophenyl)-1-(8-fluoro-6-oxo-1,2,3,4,5,6-hexahydrobenzo[c][1,7]naphthyridin-1-yl)-1-methylurea], for which the EC50 is 0.73 µM.

Turning to `CN(C(=O)Nc1ccc(F)c(Cl)c1)C1CNCc2[nH]c(=O)c3cc(F)ccc3c21` (single isomer, unassigned) [Compound 154, 3-(3-Chloro-4-fluorophenyl)-1-(8-fluoro-6-oxo-1,2,3,4,5,6-hexahydrobenzo[c][1,7]naphthyridin-1-yl)-1-methylurea], the EC50 amounted to 0.03 µM.

On to `CN1Cc2[nH]c(=O)c3cc(F)ccc3c2C(N(C)C(=O)Nc2ccc(F)c(Cl)c2)C1` (single isomer, unassigned) [Compound 155, 3-(3-Chloro-4-fluorophenyl)-1-(8-fluoro-3-methyl-6-oxo-1,2,3,4,5,6-hexahydrobenzo[c][1,7]naphthyridin-1-yl)-1-methylurea], for which the EC50 amounted to 9.2 µM.

As to `CN1Cc2[nH]c(=O)c3cc(F)ccc3c2C(N(C)C(=O)Nc2ccc(F)c(Cl)c2)C1` (single isomer, unassigned) [Compound 156, 3-(3-Chloro-4-fluorophenyl)-1-(8-fluoro-3-methyl-6-oxo-1,2,3,4,5,6-hexahydrobenzo[c][1,7]naphthyridin-1-yl)-1-methylurea], the EC50 is 0.42 µM.

For `CC(=O)N1Cc2[nH]c(=O)c3cc(F)ccc3c2C(N(C)C(=O)Nc2ccc(F)c(Cl)c2)C1` (single isomer, unassigned) [Compound 158, 1-(3-Acetyl-8-fluoro-6-oxo-1,2,3,4,5,6-hexahydrobenzo[c][1,7]naphthyridin-1-yl)-3-(3-chloro-4-fluorophenyl)-1-methylurea], the EC50 amounted to 2.3 µM.

As for `CC(=O)N1Cc2[nH]c(=O)c3cc(F)c(F)cc3c2C(N(C)C(=O)Nc2ccc(F)c(Cl)c2)C1` (single isomer, unassigned) [Compound 159, 1-(3-Acetyl-8,9-difluoro-6-oxo-1,2,3,4,5,6-hexahydrobenzo[c][1,7]naphthyridin-1-yl)-3-(3-chloro-4-fluorophenyl)-1-methylurea], the EC50 was 12 µM.

The record behind these values is patent US20230108906A1, “SUBSTITUTED BICYCLIC AND TRICYCLIC UREAS AND AMIDES, ANALOGUES THEREOF, AND METHODS USING SAME” (Arbutus Biopharma Corporation, priority 2019, published 2023).
